Data on three compounds can be found in patent publication US20090105126A1 (priority 2007, published 2009).

A short description of series [1]: Fluorescence anisotropy of entrapped calcein. Type of series: physicochemical. Conditions: calcein probe, excitation 495 nm, emission 520 nm; higher value = more viscous. As for the experimental part: DPPC was added by ethanol injection to make 5 mg/ml liposome at 50° C. […] Fluorescence anisotropy was measured at an excitation wavelength of 495 nm and emission wavelength of 520 nm. Fluorescence anisotropy is an order parameter, which ranged from 0 to 0.4 in aqueous solution. The higher value indicates more viscous solution.

Series [2] relates to S. pneumoniae (ATCC 6303). The conditions noted are these: for Log CFU/Lung, animals n/N (second line of cell) / Log CFU/mL of Blood, animals n/N (second line of cell) / Log CFU/mL of Blood: Inhalation, BID x 3; for Log CFU/mL of Blood: animals surviving until Day 7; for mice in which S. pneumoniae in the lungs was not eradicated: mice surviving to day 7.
Experimental: Sixty (60) Thirty six (36) female mice (Swiss Webster, Charles River) were received in the vivarium and acclimated for at least 7 days prior to initiation of the protocol. All mice were instilled via nasal insufflation with S. pneumoniae (ATCC, 6303, 4.1×10^4 CFU/ mice) after being anesthetized with Ketamine/Xylazine solution (80 mg/kg and 10 mg/kg). The instillation was performed through the nostrils route using micropipette with tips (Gilson, calibrated with Femt Scientific). The mouse is held by its ears and 20 μl of bacteria are gradually (2 μl per breath) released into the nostrils (10 μl in each nostril) with the help of a micro-pipette. The mice were observed every 10 min until they fully recovered from the anesthesia.
Mice were dosed on days 1, 2 and 3. There were 5 groups and each group had 12 mice. […] Mice in group 5 received sterile normal saline (0.9% NaCl) by inhalation.
Determination of bacterial colonies in the lung and blood of mice. Mice that were euthanized prior to day 7 and mice that survived to day 7 were euthanized by CO2 asphyxiation. The blood was collected by cardiac puncture after euthanization. A 1/10 dilution of blood was made in BHI broth immediately. The lungs were removed aseptically, weighed and placed into 1 ml of BHI broth in a sterile 5 ml Polypropylene round-bottom tube.
Lungs were homogenized sterilely with a Polytron^R (Brinkmann, Rexdale, Ontario, Canada) using the maximum speed in the 5 ml Polypropylene round-bottom tube. The tissues were homogenized until a smooth. Ten-fold dilutions of the lung homogenates were made in BHI broth supplemented with 10 ug/ml of Colistin(C) 5 ug/ml of Oxolinic (O). One hundred (100) ul of each dilution of lung homogenates were plated out onto CBO agar plates and spread. The plates were incubated for 24 hours at 37° C. then colonies were counted.
The subject of series [3] is S. pneumoniae (ATCC 6303).
Experimental: Thirty six (36) female mice (Swiss Webster, Charles River) were received in the vivarium and acclimated for at least 7 days prior to initiation of the protocol. […] Mice were dosed on days 1, 2 and 3. […] Mice in Group 3 received 20 min inhalation with sterile 0.9% NaCl for inhalation (Cardinal, Lot #WBA194). Euthanization and determination of bacterial colonies in blood and lungs were performed as described in Example 8.
Series [4] in a line: Concentration of vancomycin in the lungs of mice after inhalation therapy (Example 8). Conditions: for [VANCOMYCIN] in Lung, animals n/N (second line of cell): Inhalation, BID x 3; for Vancomycin (μg/g), mean / Vancomycin (μg/lung), mean / Vancomycin (μg/g), individual mice / Vancomycin (μg/lung), individual mice: 4 days after inhalation therapy; for Vancomycin (μg/g), mean / Vancomycin (μg/lung), mean: group mean; for Vancomycin (μg/g), individual mice / Vancomycin (μg/lung), individual mice: listed as Soluble Vancomycin. As for the experimental part: The instillation was performed through the nostrils route using micropipette with tips (Gilson, calibrated with Femt Scientific). The mouse is held by its ears and 20 μl of bacteria are gradually (2 μl per breath) released into the nostrils (10 μl in each nostril) with the help of a micro-pipette. The mice were observed every 10 min until they fully recovered from the anesthesia.
There were 5 groups and each group had 12 mice. […] Mice in group 5 received sterile normal saline (0.9% NaCl) by inhalation.

Setting [5] is: Intraperitoneal, BID x 3, 12 mg/kg/day.
[6] abbreviates: Intraperitoneal, BID x 3, 12 mg/kg/day, animals surviving until Day 7.
Where [7] appears, read: intraperitoneal injection 6 mg/kg BID.

Several values for one entry are separate records, joined by “and”; a condition that tells them apart may be missing. Equal entries are not always repeated. Where two headings read alike, the source gives them in different places.

Turning to `CN[C@H](CC(C)C)C(=O)N[C@H]1C(=O)N[C@@H](CC(N)=O)C(=O)N[C@H]2C(=O)N[C@H]3C(=O)N[C@H](C(=O)N[C@H](C(=O)O)c4cc(O)cc(O)c4-c4cc3ccc4O)[C@H](O)c3ccc(c(Cl)c3)Oc3cc2cc(c3O[C@@H]2O[C@H](CO)[C@@H](O)[C@H](O)[C@H]2O[C@H]2C[C@](C)(N)[C@H](O)[C@H](C)O2)Oc2ccc(cc2Cl)[C@H]1O` [Vancomycin solution (15 mg/ml), vancomycin], the Fluorescence anisotropy in series [1] was 0.014.
Same read-out and setting: the value for `CN[C@H](CC(C)C)C(=O)N[C@H]1C(=O)N[C@@H](CC(N)=O)C(=O)N[C@H]2C(=O)N[C@H]3C(=O)N[C@H](C(=O)N[C@H](C(=O)O)c4cc(O)cc(O)c4-c4cc3ccc4O)[C@H](O)c3ccc(c(Cl)c3)Oc3cc2cc(c3O[C@@H]2O[C@H](CO)[C@@H](O)[C@H](O)[C@H]2O[C@H]2C[C@](C)(N)[C@H](O)[C@H](C)O2)Oc2ccc(cc2Cl)[C@H]1O` [Vancomycin solution (300 mg/ml), vancomycin] was 0.17.
`CN[C@H](CC(C)C)C(=O)N[C@H]1C(=O)N[C@@H](CC(N)=O)C(=O)N[C@H]2C(=O)N[C@H]3C(=O)N[C@H](C(=O)N[C@H](C(=O)O)c4cc(O)cc(O)c4-c4cc3ccc4O)[C@H](O)c3ccc(c(Cl)c3)Oc3cc2cc(c3O[C@@H]2O[C@H](CO)[C@@H](O)[C@H](O)[C@H]2O[C@H]2C[C@](C)(N)[C@H](O)[C@H](C)O2)Oc2ccc(cc2Cl)[C@H]1O` [Vancomycin, vancomycin]: in series [2] (3.8 mg/kg/day, 7 days, FIG. 8), the “mice showing bacterial level in lungs” value is given as over 90%. Also, in series [2] (6.0 mg/kg/day, 7 days, FIG. 8), the “bacterial level in lungs” value is “still showed substantial bacterial level”. Further, the “Log CFU/Lung, animals n/N (second line of cell)” value in series [2] (3.8 mg/kg/day) is on record as 11/12; in series [2] (6.0 mg/kg/day), 12/12; in series [3] (setting [5]), 3/12. For the same compound, the “Log CFU/mL of Blood, animals n/N (second line of cell)” value in series [2] (3.8 mg/kg/day) is 0/12; in series [2] (6.0 mg/kg/day) it was 0/12; in series [3] (setting [5]) it was 5/12. For the same compound, the figures for the “Log CFU/mL of Blood” value in series [2] (3.8 mg/kg/day), in series [2] (6.0 mg/kg/day) and in series [3] (setting [6]) were 0 Log CFU/mL, 0 Log CFU/mL and 1.7 ± 2.1 Log CFU/mL, respectively. In addition, the “Log10 CFU/lung, individual mice” value in series [2] (inhalation 3.8 mg/kg for 3 days, day 7, 1 = limit of detection, no colonies detected) was 1 Log10 CFU/lung and 2 Log10 CFU/lung. Also, the figures for the “mice in which S. pneumoniae in the lungs was not eradicated” value in series [2] (inhaled 3.8 mg/kg), in series [2] (inhaled 6 mg/kg) and in series [3] (setting [7]) were 92%, 100% and 25%, respectively. The “bacteria in blood” value in series [2] (inhaled 6 mg/kg and 3.8 mg/kg, day 7) is “no bacteria in their blood”. In series [2] (inhaled, 6 or 3.8 mg/kg/day on days 1, 2 and 3, 12 mice per group, FIG. 4), this compound displayed a Survival of 100%. Besides, the “Log CFU/Lung” value in series [3] (setting [6]) came to 0.7 ± 1.3 Log CFU/Lung. Further, the “mice in which S. pneumoniae was not eradicated from the blood” value in series [3] (setting [7]) turned out to be 42%. Moreover, the “mice surviving to day 7” value in series [3] (intraperitoneal injection 6 mg/kg BID, days 1, 2 and 3, n=12) worked out at 100%. Also, the “vancomycin in the lungs” value is, setting by setting: (IP 12 mg/kg/day, day seven, listed as free vancomycin, 12 mg/kg/day) “no vancomycin deposition in lung was detected”; (IP injections, 4 days after the end of therapy) “No detectable concentrations”. In addition, for the setting “IP, based on 4% of the delivered dose in the lungs 30 min post IP injections”, the “initial daily lung dose” value is on record as 15 ug of vancomycin/lung. The “[VANCOMYCIN] in Lung, animals n/N (second line of cell)” value (from here on “[VANCOMYCIN] in Lung, animals n/N”) under setting [5] is on record as 0/12; the “[VANCOMYCIN] in Lung, animals n/N” value in series [4] (3.8 mg/kg/day) is reported as 12/12; the “[VANCOMYCIN] in Lung, animals n/N” value in series [4] (6.0 mg/kg/day) is 12/12. Further, the “[VANCOMYCIN] in Lung” value under setting [6] worked out at 0 mg/g. Moreover, the “vancomycin after IP injection” value (Six (6) hours after IP injection, Swiss Webster mice) was “no detectable vancomycin was observed”. The “Vancomycin (μg/g), mean” value was 34 µg/g in series [4] (inhaled 3.8 mg/kg) and 61 µg/g in series [4] (inhaled 6 mg/kg). Moreover, the results for the “Vancomycin (μg/lung), mean” value in series [4] (inhaled 3.8 mg/kg) and in series [4] (inhaled 6 mg/kg) were 5 μg/lung and 10 μg/lung, respectively. The “Vancomycin (μg/g), individual mice” value in series [4] (inhaled 3.8 mg/kg) was 14.0 µg/g and 37.0 µg/g; in series [4] (inhaled 6 mg/kg), 42.0 µg/g and 59.0 µg/g and 66.0 µg/g. For the same compound, the “Vancomycin (μg/lung), individual mice” value in series [4] (inhaled 3.8 mg/kg) was 5.8 μg/lung and 5.2 μg/lung (2×) and 6.8 μg/lung and 3.4 μg/lung and 4.7 μg/lung (2×) and 5.9 μg/lung and 2.0 μg/lung and 3.6 μg/lung and 8.1 μg/lung and 6.1 μg/lung; in series [4] (inhaled 6 mg/kg), 7.6 μg/lung and 8.8 μg/lung and 6.4 μg/lung and 9.7 μg/lung and 9.0 μg/lung and 9.3 μg/lung and 8.3 μg/lung and 14.0 μg/lung and 9.8 μg/lung.
